Laboratory results: patent publication US20120277306A1, “COMPOSITION CONTAINING METAL-ACIDIC AMINO ACID CHELATE ACCELERATING ABSORPTION OF METAL” (priority 2006, published 2012)

What was measured:
[1] = Plasma zinc concentration over time after administration of zinc samples; assay type: in vivo, Sprague-Dawley rat; details: zinc 40 mg/kg; for plasma zinc concentration over time: blood at 0.5, 1, 2, 4, 8 hours
Method: These experimental animals were randomly assigned into a zinc sulfate-administered group, a zinc arginine-administered group and a zinc-aspartate chelate-administered group. After animals were fasted for 12 hours, each zinc sample was administered to rats, such that a zinc concentration in the sample is 40 mg/kg. After administration of the samples was complete, blood was collected at a time point of 0.5, 1, 2, 4, and 8 hours, respectively, and treated with heparin. Then, blood plasma was stored in a refrigerator and used for analysis of zinc concentrations. On the other hand, in order to examine distribution of zinc in the tissue, each zinc sample was administered to rats. After 8 hours, animals were sacrificed to remove organs. Zinc concentrations in the blood plasma and tissues were determined by fluorometry using Zinquin.

[2] = Distribution of zinc in tissues (prostate, testis) after administration of zinc samples; assay type: in vivo, Sprague-Dawley rat
[3] = system: prostate cancer cell line (R3327 AT-3.1); experiment: Prostate cancer model, growth of cancer cells injected into the prostate; assay type: in vivo, COP rat
Method: 10-week-old COP male rats (Japan SLC, Shizuoka, Japan) were housed and allowed to acclimate to the new environment for seven days prior to the experiment, in a breeding room maintained at a temperature of 22±2° C., humidity of 55±5%, and a 12-h light/dark (L/D) cycle (light from 8:00 a.m. to 8:00 p.m.).
5×10^4 cells/head of the prostate cancer cell line (R3327 AT-3.1) were injected into the prostate of animals and growth of cancer cells was measured.

[4] = system: prostatitis-induced rats (Escherichia coli ATCC 25922); experiment: White rat model of chronic bacterial prostatitis, H&E histology of prostate
ZnT-2 = experiment: Expression of zinc transporter protein mRNA in prostatic tissue (RT-PCR); assay type: in vivo; details: compared to before oral administration of zinc
Method: In order to examine effects of zinc-aspartate complex on the expression of ZnT-2 and ZnT-4, known as zinc transporter proteins, experiments were carried out according to the following procedure.
Using Trizol Reagent (Invitrogen, USA), total RNA was extracted from 0.1 g of prostatic tissue. Using M-MLV reverse transcriptase (Invitrogen, USA), cDNA was synthesized from 5 μg of the extracted total RNA. 20 pmol of a primer was added to 3 μl of cDNA to make a volume of 20 μl and PCR was carried out as follows: initial denaturation at 95° C. for 5 min, followed by 26 cycles of denaturation at 94° C. for 1 min, annealing at an annealing temperature corresponding to conditions of each primer for 1 min and extension at 72° C. for 1 min, and final extension at 72° C. for 10 min.
PCR products were subjected to electrophoresis on 1.5% agarose gel containing EtBr, followed by confirmation of products under UV irradiation.
Effects of the zinc-aspartate complex, zinc sulfate and zinc arginine on the expression of mRNAs for ZnT-2, ZnT-4 and G3PDH were investigated.

[5] = system: patients with chronic prostatitis; experiment: Clinical trial of zinc-aspartate chelate in chronic prostatitis patients (NIH-CPSI); assay type: in vivo, human
Method: 34 patients with a medical history of more than 5 years of chronic prostatitis were administered with a zinc-aspartate chelate at a dose of 50 mg/day for 8 weeks. Clinical trials were conducted at the Department of Urology, College of Medicine, Korea University (Seoul, Korea). Prostatitis classification and symptom relief were analyzed according to National Institutes of Health Chronic Prostatitis Symptom Index (NIH-CPSI, proposed by NIH in 1995). As clinical effects by a conventional therapy, the data of the clinical study of Sungkyunkwan University School of Medicine (Seoul, Korea), published in the Korean Journal of Urology (2001), were cited.
Tables 3 and 4 below respectively show the results for chronic prostatitis patients with administration of an antibiotic and an anti-inflammatory drug as conventional therapeutic agents and with administration of the zinc-aspartate chelate, in conjunction with the results for the control group.

[6] = 4 and 8 hours after administration
[7] = 8 hours after administration, zinc 40 mg/kg, p<0.001
[8] = 15 mg/kg/day oral, 30 days, H&E stained prostate sections

With `O=S(=O)([O-])[O-].[Zn+2]` [zinc sulfate] as the molecule, how does the “time point of maximum blood zinc level after administration” value [1] read?
Its value is 2 h.

And the “plasma zinc concentration over time” value [1]?
The value was “time-dependent increase”.

For `N=C(N)NCCC[C@H](N)C(=O)O.[Zn]` [zinc arginine], which “plasma zinc concentration compared to zinc sulfate-administered group” value [1] is on record?
The value was “significant increase”.

And the “plasma zinc concentration over time” value [1]?
The value was “time-dependent increase”.

What does the source list for zinc-aspartate chelate?
intraprostatic zinc level compared to zinc sulfate- and zinc arginine-administered groups [2, 6]: significantly high zinc concentration; intratesticular zinc level compared to zinc sulfate- and zinc arginine-administered groups [2, 6]: significantly high zinc concentration; zinc concentration in testis [2, 7]: significantly high zinc concentration; zinc concentration in the prostatic tissue [2, 7]: significantly high zinc concentration; weight of tumor mass compared to the control group ([3]; 10 mg/kg oral daily): significant weight reduction of tumor mass; weight of tumor mass compared to the Taxel group ([3]; 10 mg/kg oral daily vs DoceTaxel 10 mg/kg once a week I.P): much lower weight of tumor mass; fibrosis in the interstitium [4, 8]: substantially no progress of fibrosis; infiltration of inflammatory cells into and around glandular tissues [4, 8]: no infiltration of inflammatory cells; prostate tissue morphology ([4]; 15 mg/kg/day oral, 30 days, compared with normal group): normal tissue morphology comparable to that of the normal group; anti-inflammatory effects ([4]; E. coli inoculated prostate, oral administration, stained prostate tissues): excellent anti-inflammatory effects; plasma zinc concentration compared to zinc sulfate-administered group [1]: significant increase; time point of maximum blood zinc level after administration [1]: 2 h; plasma zinc concentration over time [1]: time-dependent increase; expression level of ZnT-2 mRNA (ZnT-2): highest increase; side effects ([5]; 50 mg/day for 8 weeks, 34 patients): no reports showing noticeable side effects; NIH-CPSI Dysuria, after treatment ([5]; 8 weeks, oral administration, 50 mg/day, P 0.01): 4.02; NIH-CPSI Pain, after treatment ([5]; 8 weeks, oral administration, 50 mg/day, P 0.036): 6.82; NIH-CPSI Quality of life, after treatment ([5]; 8 weeks, oral administration, 50 mg/day, P 0.04): 2.61; NIH-CPSI Dysuria, before treatment ([5]; baseline, n = 34): 5.53; NIH-CPSI Pain, before treatment ([5]; baseline, n = 34): 8.412; NIH-CPSI Quality of life, before treatment ([5]; baseline, n = 34): 3.53; therapeutic effects compared with conventional drug therapy and physical therapy ([5]; chronic prostatitis patients, Tables 3 and 4): almost the similar level of therapeutic effects
